Data: ChEMBL document CHEMBL5380779, “Small Molecules Targeting the RNA-Binding Protein HuR Inhibit Tumor Growth in Xenografts” (J Med Chem, 2023)
The source made the active and inactive calls. The rule behind the calls is not given here.

Legend:
[1] = test system: MDA-MB-231; assay: Downregulation of Bcl-2 protein expression in human MDA-MB-231 cells incubated for 48 hrs by Western blotting analysis; format: functional, cell-based; details: dose 5-10 µM
[2] = test system: MDA-MB-231; assay: Inhibition of HuR-XIAP mRNA binding in human MDA-MB-231 cells at 10 uM incubated for 6 hrs by RNP immunoprecipitation assay; format: cell-based
[3] = test system: MDA-MB-231; assay: Downregulation of Msi2 protein expression in human MDA-MB-231 cells incubated for 48 hrs by Western blotting analysis; format: functional, cell-based; details: dose 5-10 µM
[4] = Toxicity in athymic NCr-nu/nu mouse xenografted with human 2LMP cells assessed as effect on body weight gain at 50 mg/kg, ip administered 5 times a week for 3 weeks; format: organism-based; details: in vivo, 504 h
[5] = target: Thrombospondin-1 (Homo sapiens) (UniProt P07996); assay: Inhibition of TGFbeta1-induced THBS1 protein expression in human MDA-MB-231 cells at 10 uM incubated for 48 hrs by Western blotting analysis; format: cell-based
[6] = test system: MDA-MB-231; assay: Downregulation of HuR protein expression in human MDA-MB-231 cells at 5 to 10 uM incubated for 48 hrs by Western blotting analysis; format: functional, cell-based; details: dose 5-10 µM
[7] = target: RNA-binding protein Musashi homolog 2 (Homo sapiens) (UniProt Q96DH6); assay: Inhibition of TGFbeta2-induced Msi2 protein expression in human MDA-MB-231 cells at 10 uM incubated for 48 hrs by Western blotting analysis; format: cell-based
[8] = target: RNA-binding protein Musashi homolog 2 (Homo sapiens) (UniProt Q96DH6); assay: Inhibition of TGFbeta1-induced Msi2 protein expression in human MDA-MB-231 cells at 10 uM incubated for 48 hrs by Western blotting analysis; format: cell-based
[9] = test system: MDA-MB-231; assay: Inhibition of HuR-TGFB2 mRNA binding in human MDA-MB-231 cells incubated for 6 hrs by RNP immunoprecipitation assay; format: cell-based
[10] = test system: MDA-MB-231; assay: Downregulation of XIAP protein expression in human MDA-MB-231 cells incubated for 48 hrs by Western blotting analysis; format: functional, cell-based; details: dose 5-10 µM
[11] = test system: MDA-MB-231; assay: Antitumor activity against human MDA-MB-231 cells xenografted athymic NCr-nu/nu mouse assessed as tumor growth delay by measuring tumor size at 400 mm^3 at 50 mg/kg, ip administered 5 times a week for 3 weeks in presence of docetaxel (reference value: 15 days); format: functional
[12] = target: ELAV-like protein 1 (Homo sapiens) (UniProt Q15717); assay: Inhibition of TGFbeta2-induced HuR protein expression in human MDA-MB-231 cells at 10 uM incubated for 48 hrs by Western blotting analysis; format: cell-based
[13] = Inhibition of full-length HuR-ARE fluorescein-labeled Msi1 mRNA binding (unknown origin) incubated for 2 hrs by fluorescence polarization assay; parameters: species or system Homo sapiens
[14] = test system: MDA-MB-231; assay: Cytotoxicity against human MDA-MB-231 cells assessed as inhibition of cell growth by MTT assay; format: functional, cell-based
[15] = test system: MDA-MB-231; assay: Antitumor activity against human MDA-MB-231 cells xenografted athymic NCr-nu/nu mouse assessed as reduction in tumor size at 50 mg/kg, ip administered 5 times a week for 3 weeks; format: functional, organism-based
[16] = test system: MDA-MB-231; assay: Antitumor activity against human MDA-MB-231 cells xenografted athymic NCr-nu/nu mouse assessed as tumor growth delay by measuring tumor size at 400 mm^3 at 50 mg/kg, ip administered 5 times a week for 3 weeks (reference value: 15 days); format: functional
[17] = target: Thrombospondin-1 (Homo sapiens) (UniProt P07996); assay: Inhibition of TGFbeta2-induced THBS1 protein expression in human MDA-MB-231 cells at 10 uM incubated for 48 hrs by Western blotting analysis; format: cell-based
[18] = test system: MDA-MB-231; assay: Cytotoxicity against HuR knockout 1 human MDA-MB-231 cells assessed as inhibition of cell growth by MTT assay (reference value: 5.320 uM); format: functional, cell-based
[19] = test system: MDA-MB-231; assay: Inhibition of HuR-16-nt biotinylated ARE Msi1 mRNA binding in human MDA-MB-231 cells at 20 uM by Western blotting analysis based pull-down assay; format: cell-based
[20] = test system: MDA-MB-231; assay: Inhibition of cell invasion of human MDA-MB-231 cells at 10 uM incubated for 24 hrs by crystal violet staining based analysis; format: functional
[21] = test system: MDA-MB-231; assay: Inhibition of HuR-Bcl-2 mRNA binding in human MDA-MB-231 cells at 10 uM incubated for 6 hrs by RNP immunoprecipitation assay; format: cell-based
[22] = test system: MDA-MB-231; assay: Downregulation of TGFB2 mRNA expression in human MDA-MB-231 cells transfected with THBS1-ORF at 5 to 10 uM incubated for 24 hrs; format: functional, cell-based; details: dose 5-10 µM
[23] = Antitumor activity against human 2LMP cells xenografted athymic NCr-nu/nu mouse assessed as tumor growth inhibition at 50 mg/kg, ip administered 5 times a week for 3 weeks; format: functional; details: 504 h, read-out: TGI
[24] = test system: MDA-MB-231; assay: Inhibition of HuR-TGFB2 mRNA binding in human MDA-MB-231 cells assessed as half life of TGFB2 in presence of actinomycin D (reference value: 7.202 hrs); format: cell-based
[25] = test system: MDA-MB-231; assay: Cytotoxicity against HuR knockout 2 human MDA-MB-231 cells assessed as inhibition of cell growth by MTT assay (reference value: 5.320 uM); format: functional, cell-based
[26] = test system: MDA-MB-231; assay: Inhibition of HuR-THBS1 mRNA binding in human MDA-MB-231 cells incubated for 6 hrs by RNP immunoprecipitation assay; format: cell-based
[27] = test system: MDA-MB-231; assay: Antitumor activity against human MDA-MB-231 cells xenografted athymic NCr-nu/nu mouse assessed as reduction in tumor size at 50 mg/kg, ip administered 5 times a week for 3 weeks in presence of docetaxel; format: functional, organism-based
[28] = target: ELAV-like protein 1 (Homo sapiens) (UniProt Q15717); assay: Thermal stabilization of HuR in human MDA-MB-231 cells at 20 uM at 42 to 54 degreeC incubated for 1 hr by western blot based cellular thermal shift assay; format: cell-based
[29] = test system: MDA-MB-231; assay: Inhibition of HuR-Msi2 mRNA binding in human MDA-MB-231 cells at 10 uM incubated for 6 hrs by RNP immunoprecipitation assay; format: cell-based
[30] = target: ELAV-like protein 1 (Homo sapiens) (UniProt Q15717); assay: Inhibition of TGFbeta1-induced HuR protein expression in human MDA-MB-231 cells at 10 uM incubated for 48 hrs by Western blotting analysis; format: cell-based
[31] = test system: MDA-MB-231; assay: Inhibition of HuR-THBS1 mRNA binding in human MDA-MB-231 cells assessed as half life of THBS1 in presence of actinomycin D (reference value: 10.46 hrs); format: cell-based

Sequence of ELAV-like protein 1 (Homo sapiens) (Q15717 whole entry): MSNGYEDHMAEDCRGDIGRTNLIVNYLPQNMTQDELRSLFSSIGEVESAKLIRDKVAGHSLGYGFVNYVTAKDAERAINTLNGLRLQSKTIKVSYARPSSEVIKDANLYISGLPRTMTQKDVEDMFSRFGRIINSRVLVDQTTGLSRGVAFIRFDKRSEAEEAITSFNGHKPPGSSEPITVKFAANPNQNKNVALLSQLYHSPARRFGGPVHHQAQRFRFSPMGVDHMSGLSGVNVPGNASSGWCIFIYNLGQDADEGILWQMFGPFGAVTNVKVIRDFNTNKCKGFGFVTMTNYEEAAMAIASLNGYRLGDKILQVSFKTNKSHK
Sequence of RNA-binding protein Musashi homolog 2 (Homo sapiens) (Q96DH6 whole entry): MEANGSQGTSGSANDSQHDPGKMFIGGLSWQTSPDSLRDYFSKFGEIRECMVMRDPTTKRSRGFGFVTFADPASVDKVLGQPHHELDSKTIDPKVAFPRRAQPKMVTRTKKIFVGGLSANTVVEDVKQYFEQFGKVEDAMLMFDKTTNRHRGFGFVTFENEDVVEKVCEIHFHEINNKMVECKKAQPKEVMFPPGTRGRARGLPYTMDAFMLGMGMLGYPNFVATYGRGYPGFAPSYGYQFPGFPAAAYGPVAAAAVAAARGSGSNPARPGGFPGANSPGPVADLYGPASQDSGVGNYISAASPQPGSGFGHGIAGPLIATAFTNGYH
Sequence of Thrombospondin-1 (Homo sapiens) (P07996 19-1170 limits assumed): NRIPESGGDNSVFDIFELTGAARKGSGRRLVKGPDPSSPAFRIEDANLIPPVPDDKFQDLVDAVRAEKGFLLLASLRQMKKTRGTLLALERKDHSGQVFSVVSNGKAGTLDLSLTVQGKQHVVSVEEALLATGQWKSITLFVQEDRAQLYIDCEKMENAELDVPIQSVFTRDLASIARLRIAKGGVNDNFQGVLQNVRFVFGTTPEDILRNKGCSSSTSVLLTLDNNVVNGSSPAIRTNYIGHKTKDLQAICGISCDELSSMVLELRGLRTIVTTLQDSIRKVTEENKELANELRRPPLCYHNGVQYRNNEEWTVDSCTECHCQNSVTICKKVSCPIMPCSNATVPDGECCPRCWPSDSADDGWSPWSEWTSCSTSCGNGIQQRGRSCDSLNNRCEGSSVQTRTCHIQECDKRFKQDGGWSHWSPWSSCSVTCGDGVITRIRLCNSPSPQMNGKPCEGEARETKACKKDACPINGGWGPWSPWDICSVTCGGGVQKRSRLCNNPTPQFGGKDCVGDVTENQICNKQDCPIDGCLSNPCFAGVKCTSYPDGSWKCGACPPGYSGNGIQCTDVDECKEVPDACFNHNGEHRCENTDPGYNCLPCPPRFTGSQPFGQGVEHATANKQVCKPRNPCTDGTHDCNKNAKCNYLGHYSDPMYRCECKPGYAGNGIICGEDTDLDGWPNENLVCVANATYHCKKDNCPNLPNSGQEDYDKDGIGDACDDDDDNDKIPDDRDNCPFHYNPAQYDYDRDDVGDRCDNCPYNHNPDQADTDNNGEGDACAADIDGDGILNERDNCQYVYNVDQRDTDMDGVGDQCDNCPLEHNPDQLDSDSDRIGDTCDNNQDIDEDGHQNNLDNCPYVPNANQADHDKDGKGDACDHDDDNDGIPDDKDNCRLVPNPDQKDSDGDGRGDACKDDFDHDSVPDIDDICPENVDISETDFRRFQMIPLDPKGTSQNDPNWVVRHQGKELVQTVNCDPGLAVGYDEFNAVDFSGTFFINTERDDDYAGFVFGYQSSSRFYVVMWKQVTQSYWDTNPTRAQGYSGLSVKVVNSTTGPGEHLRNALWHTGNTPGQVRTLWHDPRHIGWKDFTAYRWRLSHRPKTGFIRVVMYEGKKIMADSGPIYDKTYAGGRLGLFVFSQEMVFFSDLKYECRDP

CC(C)(C)c1ccc(C(=O)Nc2ccc3[nH]c(C(=O)NO)cc3c2)cc1
Activity [1]: Dose-Dependent Effect | inhibition [2]: Active | Activity [3]: Dose-Dependent Effect | Activity [4]: Non-Toxic | inhibition [5]: Active | Activity [6]: inactive | inhibition [7]: Active | inhibition [8]: Active | inhibition [9]: Active | Activity [10]: Dose-Dependent Effect | Time [11]: 32 days | inhibition [12]: Active | IC50 [13]: 2.77 µM | Ki [13]: 0.65 µM | IC50 [14]: 4.74 µM | Activity [15]: Active | Time [16]: 18 days | inhibition [17]: Active | IC50 [18]: 16.1 µM | inhibition [19]: Active | inhibition [20]: Active | inhibition [21]: Active | Activity [22]: Active | inhibition in vivo at 50 mg/kg [23]: 35% | T1/2 [24]: 4.76 h | IC50 [25]: 12.5 µM | inhibition [26]: Active | Activity [27]: Active | Activity [28]: Active | inhibition [29]: Active | inhibition [30]: Active | T1/2 [31]: 6.15 h
